The conditions of the series: Crystal; DTA.

Consider 1 compound from the NIST ThermoML archive (doi:10.1021/je800618x).

Each structure is given as a SMILES string. Numbers after ± are expanded uncertainties.

As for `CC[n+]1ccccc1.F[P-](F)(F)(F)(F)F` [1-ethylpyridinium hexafluorophosphate], the Normal melting temperature is 103.20 ± 0.41 °C.
